Assay results taken from patent US20260325533A1, “CDK INHIBITOR COMPOUNDS” (ALEKSIA THERAPEUTICS, INC., priority 2023, published 2026).
Where two headings read alike, the source gives them in different places.

Key:
Format in all cases: biochemical
CDK2/CCNE1 = CDK2/CCNE1 (Homo sapiens, UniProt P24941); assay: CDK2 homogeneous time-resolved fluorescence (HTRF) kinase assay; settings: CDK2/CCNE
Summary of the method: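 IC50 derived from 11-point, half-log dilutions (usually top 10 μM) of compound, 1% DMSO. Kinase (3 nM CDK2/CCNE1) was preincubated with compound 20 min, then phosphorylated 50 nM ULight-4E-BP1 peptide at 1 mM ATP for 60 min, 23 °C. Europium-antibody TR-FRET read after EDTA stop.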

CDK1/CCNB1 = CDK1/CCNB1 (Homo sapiens, UniProt P06493); assay: CDK1 homogeneous time-resolved fluorescence (HTRF) kinase assay; settings: CDK1/CCNB
Sequence of CDK1/CCNB1 (P06493 whole entry): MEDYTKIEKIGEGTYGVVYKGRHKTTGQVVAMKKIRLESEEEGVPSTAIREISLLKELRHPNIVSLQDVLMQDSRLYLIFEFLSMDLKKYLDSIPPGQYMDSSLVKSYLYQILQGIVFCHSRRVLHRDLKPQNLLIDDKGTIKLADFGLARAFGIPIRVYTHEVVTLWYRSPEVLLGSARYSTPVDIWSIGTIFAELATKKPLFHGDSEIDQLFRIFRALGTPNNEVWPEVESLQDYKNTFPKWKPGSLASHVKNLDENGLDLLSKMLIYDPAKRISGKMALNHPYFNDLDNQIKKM
Sequence of CDK1/CCNB1 (P14635 whole entry partner): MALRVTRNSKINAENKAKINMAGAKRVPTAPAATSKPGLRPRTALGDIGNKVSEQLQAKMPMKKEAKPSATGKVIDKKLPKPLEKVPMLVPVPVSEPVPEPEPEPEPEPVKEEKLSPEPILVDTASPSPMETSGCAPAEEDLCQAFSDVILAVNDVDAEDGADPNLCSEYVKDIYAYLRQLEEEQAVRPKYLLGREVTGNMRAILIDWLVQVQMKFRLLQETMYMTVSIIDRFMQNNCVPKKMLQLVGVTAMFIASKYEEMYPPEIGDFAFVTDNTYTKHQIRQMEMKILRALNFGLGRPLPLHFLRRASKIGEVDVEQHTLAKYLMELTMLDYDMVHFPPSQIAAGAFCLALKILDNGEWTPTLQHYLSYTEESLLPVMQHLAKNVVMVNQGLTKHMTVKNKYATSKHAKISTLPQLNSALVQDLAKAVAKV
Summary of the method: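 HTRF assay with 0.5 nM CDK1/CCNB1, 1 mM ATP, 50 nM ULight-eIF4E-BP1 (Thr37/46) peptide; compound preincubated 20 min, reaction 60 min at 23 °C, EDTA stop, Eu-anti-phospho antibody detection. 11-point half-log titration from 10 μM, 1% DMSO; IC50 from 665 nm or 665/615 signal.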

CDK4/CCND3 = CDK4/CCND3 (Homo sapiens, UniProt P11802); assay: CDK4 homogeneous time-resolved fluorescence (HTRF) kinase assay; settings: CDK4/CCND
Sequence of CDK4/CCND3 (P11802 whole entry): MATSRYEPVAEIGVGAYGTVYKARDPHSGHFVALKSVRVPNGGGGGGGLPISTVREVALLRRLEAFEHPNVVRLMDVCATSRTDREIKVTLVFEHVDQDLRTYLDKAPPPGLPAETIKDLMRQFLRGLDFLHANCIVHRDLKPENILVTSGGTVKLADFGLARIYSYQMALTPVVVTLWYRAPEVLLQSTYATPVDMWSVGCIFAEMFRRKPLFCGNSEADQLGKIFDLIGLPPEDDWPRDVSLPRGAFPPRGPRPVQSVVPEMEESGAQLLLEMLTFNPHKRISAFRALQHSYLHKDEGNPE
Sequence of CDK4/CCND3 (P30281 whole entry partner): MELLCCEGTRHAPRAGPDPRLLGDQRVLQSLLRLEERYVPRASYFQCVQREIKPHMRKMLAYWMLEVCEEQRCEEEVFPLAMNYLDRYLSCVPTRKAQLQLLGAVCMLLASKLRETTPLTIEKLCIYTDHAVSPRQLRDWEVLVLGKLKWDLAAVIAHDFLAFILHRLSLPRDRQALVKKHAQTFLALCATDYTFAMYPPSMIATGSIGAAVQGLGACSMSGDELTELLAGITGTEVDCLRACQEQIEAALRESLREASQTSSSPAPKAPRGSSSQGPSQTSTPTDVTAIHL
Summary of the method: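 IC50s derive from Lance 665 nm or 665/615 nm signals in 11-point, half-log dose series (top 10 μM, 1% DMSO). The enzyme, 1.5 nM CDK4/CCND3, phosphorylates 50 nM ULight-4E-BP1 peptide with 1 mM ATP over 60 min at 23 °C.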

CDK6/CCND1 = CDK6/CCND1 (Homo sapiens, UniProt Q00534); assay: CDK6 homogeneous time-resolved fluorescence (HTRF) kinase assay; settings: CDK6/CCND, 1 mM ATP
Sequence of CDK6/CCND1 (Q00534 whole entry): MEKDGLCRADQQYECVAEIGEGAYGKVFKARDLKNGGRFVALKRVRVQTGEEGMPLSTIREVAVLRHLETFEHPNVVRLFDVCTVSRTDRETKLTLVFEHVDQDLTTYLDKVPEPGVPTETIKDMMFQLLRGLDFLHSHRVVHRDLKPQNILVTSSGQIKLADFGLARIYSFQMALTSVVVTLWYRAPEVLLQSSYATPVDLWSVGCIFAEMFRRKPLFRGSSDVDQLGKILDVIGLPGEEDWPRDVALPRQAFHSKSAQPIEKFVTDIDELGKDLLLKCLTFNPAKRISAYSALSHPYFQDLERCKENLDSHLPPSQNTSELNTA
Sequence of CDK6/CCND1 (P24385 whole entry partner): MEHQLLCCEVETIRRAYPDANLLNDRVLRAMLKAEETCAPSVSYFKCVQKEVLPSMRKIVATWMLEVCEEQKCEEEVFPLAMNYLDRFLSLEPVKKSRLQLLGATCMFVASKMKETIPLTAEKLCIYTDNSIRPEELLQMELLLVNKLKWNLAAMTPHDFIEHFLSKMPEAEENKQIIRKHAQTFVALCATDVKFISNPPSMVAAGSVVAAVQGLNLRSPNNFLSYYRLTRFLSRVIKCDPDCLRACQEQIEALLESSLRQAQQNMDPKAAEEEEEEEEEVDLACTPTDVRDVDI
Summary of the method: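 Assay conditions: HEPES buffer containing 10 mM MgCl2, 1 mM EGTA, 2 mM DTT, 0.01% Tween 20; 1 nM CDK6/CCND1, 50 nM peptide substrate, 1 mM ATP. Detection after 60 min reaction used 2 nM europium antibody with 340 nm excitation. Potency fitted from half-log series, 11 points.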

[1] = <25 nM, read-out: CDK2/CCNE IC50, <25 nM
[2] = >250 nM, read-out: CDK1/CCNB IC50 >250 nM
[3] = 25-250 nM, read-out: CDK4/CCND IC50, 25-250 nM
[4] = 25-250 nM, read-out: CDK6/CCND IC50, 25-250 nM
[5] = 25-250 nM, read-out: CDK1/CCNB IC50, 25-250 nM
[6] = 25-250 nM, read-out: CDK2/CCNE IC50, 25-250 nM
[7] = >250 nM, read-out: CDK4/CCND IC50, >250 nM
[8] = >250 nM, read-out: CDK6/CCND IC50, >250 nM

Row | SMILES | IC50 (CDK2/CCNE1; [1]) [nM] | IC50 (CDK1/CCNB1; [2]) [nM] | IC50 (CDK4/CCND3; [3]) [nM] | IC50 (CDK6/CCND1; [4]) [nM] | IC50 (CDK1/CCNB1; [5]) [nM] | IC50 (CDK2/CCNE1; [6]) [nM] | IC50 (CDK4/CCND3; [7]) [nM] | IC50 (CDK6/CCND1; [8]) [nM]
1 | Cc1c(-c2nccc3cnc(Nc4ccc(S(=O)(=O)NC5CCOCC5)cc4)cc23)ccc2c1cnn2CC(C)(C)O [Ex 793, 4-((5-(1-(2-hydroxy-2-methylpropyl)-4-methyl-1H-indazol-5-yl)-2,6-naphthyridin-3-yl)amino)-N-(tetrahydro-2H-pyran-4-yl)benzenesulfonamide] | < 25 | > 250 | 25 to 250 | 25 to 250 |  |  |  | 
2 | Cc1c(-c2nccc3cnc(Nc4ccc(S(=O)(=O)NC5CC5)cc4)cc23)ccc2c1cnn2CC(C)(C)O [Ex 794, N-cyclopropyl-4-((5-(1-(2-hydroxy-2-methylpropyl)-4-methyl-1H-indazol-5-yl)-2,6-naphthyridin-3-yl)amino)benzenesulfonamide] | < 25 | > 250 | 25 to 250 | 25 to 250 |  |  |  | 
3 | CCNS(=O)(=O)c1ccc(Nc2cc3c(-c4ccc5c(cnn5CC(C)(C)O)c4C)nccc3cn2)cc1 [Ex 795, N-ethyl-4-((5-(1-(2-hydroxy-2-methylpropyl)-4-methyl-1H-indazol-5-yl)-2,6-naphthyridin-3-yl)amino)benzenesulfonamide] | < 25 | > 250 | 25 to 250 | 25 to 250 |  |  |  | 
4 | CNS(=O)(=O)c1ccc(Nc2cc3c(-c4ccc5c(cnn5CC(C)(C)O)c4C)nccc3cn2)cc1 [Ex 796, 4-((5-(1-(2-hydroxy-2-methylpropyl)-4-methyl-1H-indazol-5-yl)-2,6-naphthyridin-3-yl)amino)-N-methylbenzenesulfonamide] | < 25 |  | 25 to 250 | 25 to 250 | 25 to 250 |  |  | 
5 | Cc1c(-c2nccc3cnc(Nc4ccc(S(=O)(=O)Nc5ccncn5)cc4)cc23)ccc2c1cnn2CC(C)(C)O [Ex 797, 4-((5-(1-(2-hydroxy-2-methylpropyl)-4-methyl-1H-indazol-5-yl)-2,6-naphthyridin-3-yl)amino)-N-(pyrimidin-4-yl)benzenesulfonamide] |  | > 250 |  |  |  | 25 to 250 | > 250 | > 250
6 | COc1ccc(NS(=O)(=O)c2ccc(Nc3cc4c(-c5ccc6c(cnn6CC(C)(C)O)c5C)nccc4cn3)cc2)nn1 [Ex 798, 4-((5-(1-(2-hydroxy-2-methylpropyl)-4-methyl-1H-indazol-5-yl)-2,6-naphthyridin-3-yl)amino)-N-(6-methoxypyridazin-3-yl)benzenesulfonamide] | < 25 | > 250 | 25 to 250 | 25 to 250 |  |  |  | 
7 | Cc1c(-c2nccc3cnc(Nc4ccc(S(=O)(=O)Nc5ccc(C(F)(F)F)nn5)cc4)cc23)ccc2c1cnn2CC(C)(C)O [Ex 799, 4-((5-(1-(2-hydroxy-2-methylpropyl)-4-methyl-1H-indazol-5-yl)-2,6-naphthyridin-3-yl)amino)-N-(6-(trifluoromethyl)pyridazin-3-yl)benzenesulfonamide] | < 25 | > 250 |  |  |  |  | > 250 | > 250
8 | Cc1ccc(NS(=O)(=O)c2ccc(Nc3cc4c(-c5ccc6c(cnn6CC(C)(C)O)c5C)nccc4cn3)cc2)nn1 [Ex 800, 4-((5-(1-(2-hydroxy-2-methylpropyl)-4-methyl-1H-indazol-5-yl)-2,6-naphthyridin-3-yl)amino)-N-(6-methylpyridazin-3-yl)benzenesulfonamide] | < 25 |  | 25 to 250 | 25 to 250 | 25 to 250 |  |  | 
9 | Cc1c(-c2nccc3cnc(Nc4ccc(S(=O)(=O)Nc5cccc(C(C)(C)O)c5)cc4)cc23)ccc2c1cnn2CC(C)(C)O [Ex 802, 4-((5-(1-(2-hydroxy-2-methylpropyl)-4-methyl-1H-indazol-5-yl)-2,6-naphthyridin-3-yl)amino)-N-(3-(2-hydroxypropan-2-yl)phenyl)benzenesulfonamide] | < 25 | > 250 |  |  |  |  | > 250 | > 250

Now from value to compound:

Row | IC50 (CDK2/CCNE1; [1]) [nM] | IC50 (CDK1/CCNB1; [2]) [nM] | IC50 (CDK4/CCND3; [3]) [nM] | IC50 (CDK6/CCND1; [4]) [nM] | IC50 (CDK1/CCNB1; [5]) [nM] | IC50 (CDK2/CCNE1; [6]) [nM] | IC50 (CDK4/CCND3; [7]) [nM] | IC50 (CDK6/CCND1; [8]) [nM] | SMILES
10 | < 25 | > 250 |  |  |  |  | > 250 | > 250 | Cc1c(-c2nccc3cnc(Nc4ccc(S(=O)(=O)Nc5cccc(N6CCOCC6)c5)cc4)cc23)ccc2c1cnn2CC(C)(C)O [Ex 803, 4-((5-(1-(2-hydroxy-2-methylpropyl)-4-methyl-1H-indazol-5-yl)-2,6-naphthyridin-3-yl)amino)-N-(3-morpholinophenyl)benzenesulfonamide]
11 | < 25 | > 250 |  |  |  |  | > 250 | > 250 | COc1cccc(NS(=O)(=O)c2ccc(Nc3cc4c(-c5ccc6c(cnn6CC(C)(C)O)c5C)nccc4cn3)cc2)c1 [Ex 804, 4-((5-(1-(2-hydroxy-2-methylpropyl)-4-methyl-1H-indazol-5-yl)-2,6-naphthyridin-3-yl)amino)-N-(3-methoxyphenyl)benzenesulfonamide]
12 | < 25 | > 250 |  |  |  |  | > 250 | > 250 | COc1cc(NS(=O)(=O)c2ccc(Nc3cc4c(-c5ccc6c(cnn6CC(C)(C)O)c5C)nccc4cn3)cc2)cc(OC)c1 [Ex 805, N-(3,5-dimethoxyphenyl)-4-((5-(1-(2-hydroxy-2-methylpropyl)-4-methyl-1H-indazol-5-yl)-2,6-naphthyridin-3-yl)amino)benzenesulfonamide]
13 |  | > 250 |  |  |  | 25 to 250 | > 250 | > 250 | Cc1c(-c2nccc3cnc(Nc4ccc(S(=O)(=O)Nc5cccc(C(F)(F)F)c5)cc4)cc23)ccc2c1cnn2CC(C)(C)O [Ex 806, 4-((5-(1-(2-hydroxy-2-methylpropyl)-4-methyl-1H-indazol-5-yl)-2,6-naphthyridin-3-yl)amino)-N-(3-(trifluoromethyl)phenyl)benzenesulfonamide]
14 | < 25 | > 250 |  |  |  |  | > 250 | > 250 | Cc1cccc(NS(=O)(=O)c2ccc(Nc3cc4c(-c5ccc6c(cnn6CC(C)(C)O)c5C)nccc4cn3)cc2)c1 [Ex 807, 4-((5-(1-(2-hydroxy-2-methylpropyl)-4-methyl-1H-indazol-5-yl)-2,6-naphthyridin-3-yl)amino)-N-(m-tolyl)benzenesulfonamide]
15 |  | > 250 |  |  |  | 25 to 250 | > 250 | > 250 | Cc1cc(C)cc(NS(=O)(=O)c2ccc(Nc3cc4c(-c5ccc6c(cnn6CC(C)(C)O)c5C)nccc4cn3)cc2)c1 [Ex 808, N-(3,5-dimethylphenyl)-4-((5-(1-(2-hydroxy-2-methylpropyl)-4-methyl-1H-indazol-5-yl)-2,6-naphthyridin-3-yl)amino)benzenesulfonamide]
16 | < 25 | > 250 |  |  |  |  | > 250 | > 250 | Cc1c(-c2nccc3cnc(Nc4ccc(S(=O)(=O)Nc5ccccc5)cc4)cc23)ccc2c1cnn2CC(C)(C)O [Ex 809, 4-((5-(1-(2-hydroxy-2-methylpropyl)-4-methyl-1H-indazol-5-yl)-2,6-naphthyridin-3-yl)amino)-N-phenylbenzenesulfonamide]
17 | < 25 | > 250 |  | 25 to 250 |  |  | > 250 |  | Cc1c(-c2nccc3cnc(Nc4ccc(S(=O)(=O)Nc5ccc(C(C)(C)O)cn5)cc4)cc23)ccc2c1cnn2CC(C)(C)O [Ex 810, 4-((5-(1-(2-hydroxy-2-methylpropyl)-4-methyl-1H-indazol-5-yl)-2,6-naphthyridin-3-yl)amino)-N-(5-(2-hydroxypropan-2-yl)pyridin-2-yl)benzenesulfonamide]
18 | < 25 |  |  |  | 25 to 250 |  | > 250 | > 250 | Cc1c(-c2nccc3cnc(Nc4ccc(S(=O)(=O)Nc5cccc(C(C)(C)O)n5)cc4)cc23)ccc2c1cnn2CC(C)(C)O [Ex 811, 4-((5-(1-(2-hydroxy-2-methylpropyl)-4-methyl-1H-indazol-5-yl)-2,6-naphthyridin-3-yl)amino)-N-(6-(2-hydroxypropan-2-yl)pyridin-2-yl)benzenesulfonamide]
19 | < 25 | > 250 |  |  |  |  | > 250 | > 250 | COc1cccc(NS(=O)(=O)c2ccc(Nc3cc4c(-c5ccc6c(cnn6CC(C)(C)O)c5C)nccc4cn3)cc2)n1 [Ex 812, 4-((5-(1-(2-hydroxy-2-methylpropyl)-4-methyl-1H-indazol-5-yl)-2,6-naphthyridin-3-yl)amino)-N-(6-methoxypyridin-2-yl)benzenesulfonamide]
